Reference: PubChem BioAssay AID1963960 (Molecular Pharmacology Branch, DTP, NCI, 2024)

Tested on: MDA-MB-468 spheroids with HUVEC/MSC, viability
Test: Anticancer human tumor MDA-MB-468 cell line growth inhibition [PI3K];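 also: spheroids exposed to agents for seven days before readout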;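 as to viability, T/C: 100% = DMSO vehicle control viability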
Details: for IC50: curve of first compound; for viability, T/C: stronger effect = lower value; active = viability on the fitted dose curve at most 10% of control; inactive = the rest
Method in brief: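 High-throughput combination screen: PI3K inhibitors crossed with targeted small molecules on complex spheroids of tumor cells, HUVEC and MSCs at 37 degrees C, 5% CO2. Top concentration was at or near clinical Cmax (otherwise 10 microM), with half-log decrements.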

[1] = second compound 0.0316 µM, first compound 0.000316 µM
[2] = second compound 0.0316 µM, first compound 0.001 µM
[3] = second compound 0.0316 µM, first compound 0.00316 µM
[4] = second compound 0.0316 µM, first compound 0.01 µM
[5] = second compound 0.0316 µM, first compound 0.0316 µM
[6] = second compound 0.0316 µM, first compound 0.1 µM
[7] = second compound 0.1 µM, first compound 0.000316 µM
[8] = second compound 0.1 µM, first compound 0.001 µM
[9] = second compound 0.1 µM, first compound 0.00316 µM
[10] = second compound 0.1 µM, first compound 0.01 µM
[11] = second compound 0.1 µM, first compound 0.0316 µM
[12] = second compound 0.1 µM, first compound 0.1 µM
[13] = second compound 0.316 µM, first compound 0.000316 µM
[14] = second compound 0.316 µM, first compound 0.001 µM
[15] = second compound 0.316 µM, first compound 0.00316 µM
[16] = second compound 0.316 µM, first compound 0.01 µM
[17] = second compound 0.316 µM, first compound 0.0316 µM
[18] = second compound 0.316 µM, first compound 0.1 µM
[19] = second compound 1 µM, first compound 0.000316 µM
[20] = second compound 1 µM, first compound 0.001 µM
[21] = second compound 1 µM, first compound 0.00316 µM
[22] = second compound 1 µM, first compound 0.01 µM
[23] = second compound 1 µM, first compound 0.0316 µM
[24] = second compound 1 µM, first compound 0.1 µM
[25] = second compound 3.16 µM, first compound 0.000316 µM
[26] = second compound 3.16 µM, first compound 0.001 µM
[27] = second compound 3.16 µM, first compound 0.00316 µM
[28] = second compound 3.16 µM, first compound 0.01 µM
[29] = second compound 3.16 µM, first compound 0.0316 µM
[30] = second compound 3.16 µM, first compound 0.1 µM
[31] = second compound 10 µM, first compound 0.000316 µM
[32] = second compound 10 µM, first compound 0.001 µM
[33] = second compound 10 µM, first compound 0.00316 µM
[34] = second compound 10 µM, first compound 0.01 µM
[35] = second compound 10 µM, first compound 0.0316 µM
[36] = second compound 10 µM, first compound 0.1 µM

CC(=O)c1c(C)c2cnc(Nc3ccc(N4CCNCC4)cn3)nc2n(C2CCCC2)c1=O + Cc1nc(NC(=O)N2CCCC2C(N)=O)sc1-c1ccnc(C(C)(C)C(F)(F)F)c1
< 0.000316 µM: IC50 (second compound 10 µM)
> 0.1 µM: IC50 (second compound 0.0316 µM) | IC50 (second compound 0.1 µM) | IC50 (second compound 0.316 µM) | IC50 (second compound 1 µM) | IC50 (second compound 3.16 µM)
inactive: viability, T/C [1] 91.5% | viability, T/C [2] 92.1% | viability, T/C [3] 74.8% | viability, T/C [4] 93.4% | viability, T/C [5] 70.7% | viability, T/C [6] 70.2% | viability, T/C [7] 88.3% | viability, T/C [8] 92.2% | viability, T/C [9] 86.5% | viability, T/C [10] 97% | viability, T/C [11] 61.6% | viability, T/C [12] 67.2% | viability, T/C [13] 96.2% | viability, T/C [14] 95% | viability, T/C [15] 74.8% | viability, T/C [16] 91.9% | viability, T/C [17] 72.5% | viability, T/C [18] 67.6% | viability, T/C [19] 90.1% | viability, T/C [20] 75.7% | viability, T/C [21] 73.5% | viability, T/C [22] 75.2% | viability, T/C [23] 75.6% | viability, T/C [24] 76.8% | viability, T/C [25] 74.9% | viability, T/C [26] 60.4% | viability, T/C [27] 57.5% | viability, T/C [28] 68.8% | viability, T/C [29] 55.4% | viability, T/C [30] 55.2% | viability, T/C [31] 32.1% | viability, T/C [32] 24.2% | viability, T/C [33] 31.2% | viability, T/C [34] 28.6% | viability, T/C [35] 29.5% | viability, T/C [36] 27.6%

CC(C)n1nc(-c2ccc3oc(N)nc3c2)c2c(N)ncnc21 + Cc1nc(NC(=O)N2CCCC2C(N)=O)sc1-c1ccnc(C(C)(C)C(F)(F)F)c1
0.0245 µM: IC50 (second compound 0.316 µM)
0.0147 µM: IC50 (second compound 3.16 µM)
inactive: viability, T/C [1] 88.3% | viability, T/C [2] 82.8% | viability, T/C [3] 89.5% | viability, T/C [4] 101% | viability, T/C [5] 74.6% | viability, T/C [6] 14.4% | viability, T/C [7] 93.7% | viability, T/C [8] 79.6% | viability, T/C [9] 85.5% | viability, T/C [10] 95% | viability, T/C [11] 51.6% | viability, T/C [12] 10.8% | viability, T/C [13] 99.5% | viability, T/C [14] 94.3% | viability, T/C [15] 86.2% | viability, T/C [16] 82.5% | viability, T/C [17] 40.6% | viability, T/C [18] 10.7% | viability, T/C [19] 86.4% | viability, T/C [20] 75.6% | viability, T/C [21] 63.6% | viability, T/C [22] 66.2% | viability, T/C [23] 42.2% | viability, T/C [24] 11.8% | viability, T/C [25] 64.5% | viability, T/C [26] 58.4% | viability, T/C [27] 61.1% | viability, T/C [28] 59.2% | viability, T/C [29] 31.8% | viability, T/C [31] 42.4% | viability, T/C [32] 21.8% | viability, T/C [33] 32.1% | viability, T/C [34] 20.7% | viability, T/C [35] 18.5%
active: viability, T/C [30] 9.62% | viability, T/C [36] 5.69%
0.0506 µM: IC50 (second compound 0.0316 µM)
0.019 µM: IC50 (second compound 1 µM)
0.033 µM: IC50 (second compound 0.1 µM)
< 0.000316 µM: IC50 (second compound 10 µM)
